Assay results as given in patent US8513232B2, “Substituted spirocyclic piperidine derivatives as histamine-3 (H3) receptor ligands” (Cephalon, Inc., priority 2008, dated 2013).

Tests used:
human H3 receptor = molecular target: T1, human H3 receptor (Homo sapiens, UniProt Q9Y5N1); assay: Human H3 radioligand binding ([3H]-N-alpha-methylhistamine, SPA); conditions: Human H3 binding, Table B, Examples 136-362; read-out: hum H3 binding Ki
T1 construct: expressed in transfected cells
Method in brief: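 SPA competition binding on membranes from CHO cells stably expressing human H3 receptor (10 μg protein/well) with ~1 nM [3H]-N-alpha-methylhistamine and compound at 0.01 nM-30 μM. Incubation 4 h at room temperature in 50 mM Tris-HCl pH 7.4, 5 mM MgCl2, 0.1% BSA; non-specific binding defined with 10 μM clobenpropit.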

[1] = molecular target: T2, rat histamine H3 receptor (Rattus norvegicus, UniProt Q9QYN8); assay: Rat H3 radioligand binding ([3H]-N-alpha-methylhistamine, SPA); conditions: Rat H3 binding, Table B, Examples 136-362; read-out: rat H3 binding Ki
T2 construct: encoding the entire 445-amino-acid rat histamine H3 receptor; expressed in transfected cells; membrane preparation
Method in brief: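 Membranes from CHO-A3 cells stably expressing full-length rat H3 receptor (10 μg protein/well) incubated 4 h at room temperature, protected from light, with ~1 nM [3H]-N-alpha-methylhistamine and compound (0.01 nM-30 μM) in 50 mM Tris HCl pH 7.4, 5 mM MgCl2, 0.1% BSA. Binding read by SPA; 10 μM clobenpropit defined non-specific binding.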

T2 sequence (Q9QYN8 whole entry): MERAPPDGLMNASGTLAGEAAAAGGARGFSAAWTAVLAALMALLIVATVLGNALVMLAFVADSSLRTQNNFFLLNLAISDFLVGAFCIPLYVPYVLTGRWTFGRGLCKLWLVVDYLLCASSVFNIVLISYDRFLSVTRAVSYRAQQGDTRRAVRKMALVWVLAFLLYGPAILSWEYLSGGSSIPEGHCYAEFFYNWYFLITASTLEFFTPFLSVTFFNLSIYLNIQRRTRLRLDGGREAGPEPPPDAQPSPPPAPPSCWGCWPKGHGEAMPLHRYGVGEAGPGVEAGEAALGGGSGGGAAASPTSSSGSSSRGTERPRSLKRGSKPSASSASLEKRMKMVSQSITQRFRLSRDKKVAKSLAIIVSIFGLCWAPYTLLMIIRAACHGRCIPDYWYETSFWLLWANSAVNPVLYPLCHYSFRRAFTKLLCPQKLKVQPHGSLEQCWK
T1 sequence (Q9Y5N1 whole entry): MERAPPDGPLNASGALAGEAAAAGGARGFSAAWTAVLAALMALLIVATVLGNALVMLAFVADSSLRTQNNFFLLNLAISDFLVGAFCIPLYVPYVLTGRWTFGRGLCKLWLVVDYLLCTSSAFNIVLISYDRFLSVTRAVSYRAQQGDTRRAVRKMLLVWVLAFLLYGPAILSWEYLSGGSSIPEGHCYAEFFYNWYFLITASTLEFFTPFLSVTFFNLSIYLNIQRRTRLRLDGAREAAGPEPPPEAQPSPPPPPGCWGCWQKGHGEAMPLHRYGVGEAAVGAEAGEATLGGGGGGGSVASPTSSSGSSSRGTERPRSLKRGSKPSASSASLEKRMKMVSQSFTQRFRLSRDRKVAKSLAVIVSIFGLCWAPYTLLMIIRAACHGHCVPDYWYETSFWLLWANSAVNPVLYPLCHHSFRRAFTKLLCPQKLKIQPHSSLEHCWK

Row | Ki (human H3 receptor) [nM] | Ki [1] [nM] | melting point [°C] | SMILES
1 | < 200 | < 200 | 222 to 224 | O=C(Nc1ccc2c(c1)COC1(CCN(C3CCC3)CC1)O2)c1cncs1 [Example 271]
2 | < 200 | < 200 | 194.6 to 195.8 | O=C(Nc1ccccc1)N1CCN(c2ccc3c(c2)COC2(CCN(C4CCC4)CC2)O3)CC1 [Example 276]
3 | < 200 | < 200 | 168 to 169 | O=C(Nc1ccc2c(c1)COC1(CCN(C3CCC3)CC1)O2)c1ccncc1F [Example 277]
4 | < 200 | < 200 | 260 to 262 | O=C(Nc1ccc2c(c1)COC1(CCN(C3CCC3)CC1)O2)c1cc[nH]c(=O)c1 [Example 278]
5 | < 200 | < 200 | 60.8 to 62.3 | CC(=O)N1CCN(c2ccc3c(c2)COC2(CCN(C4CCC4)CC2)O3)CC1 [Example 283]
6 | < 200 | < 200 | 138 to 140 | COCC(C)(C)NC(=O)c1ccc(-c2ccc3c(c2)COC2(CCN(C4CCC4)CC2)O3)cc1 [Example 284]
7 | < 200 | < 200 | 206 to 208 | CNC(=O)c1ccc(Nc2ccc3c(c2)COC2(CCN(C4CCC4)CC2)O3)cc1 [Example 285]
8 | < 200 | < 200 | 175 to 177 | O=C(Nc1ccc2c(c1)COC1(CCN(C3CCC3)CC1)O2)c1cnco1 [Example 286]
9 | < 200 | < 200 | 153 to 155 | CN(C)C(=O)N1CCN(c2ccc3c(c2)COC2(CCN(C4CCC4)CC2)O3)CC1 [Example 287]
10 | < 200 | < 200 | 115 to 117 | CC(=O)N(Cc1ccccc1)c1ccc2c(c1)COC1(CCN(C3CCC3)CC1)O2 [Example 290]
11 | < 200 | < 200 | 187 to 188 | O=C(Nc1ccc2c(c1)COC1(CCN(C3CCC3)CC1)O2)c1ccnc(F)c1 [Example 291]
12 | < 200 | < 200 | 107 to 110 | CN(C(=O)N1CCN(c2ccc3c(c2)COC2(CCN(C4CCC4)CC2)O3)CC1)c1ccccc1 [Example 293]
13 | < 200 | < 200 | 191 to 193 | Cc1cc(C(=O)Nc2ccc3c(c2)COC2(CCN(C4CCC4)CC2)O3)cc(C)n1 [Example 296]
14 | < 200 | < 200 | 198 to 199 | O=C(Nc1ccc2c(c1)COC1(CCN(C3CCC3)CC1)O2)c1ccncn1 [Example 297]
15 | < 200 | < 200 | 221 to 222 | CC(C)NC(=O)c1ccc(-c2ccc3c(c2)COC2(CCN(C4CCC4)CC2)O3)cc1 [Example 301]
16 | < 200 | < 200 | 173 to 175 | O=C(Nc1ccc2c(c1)COC1(CCN(C3CCC3)CC1)O2)c1cnccn1 [Example 304]
17 | < 200 | < 200 | 85 to 87 | c1ccc(CNc2ccc3c(c2)COC2(CCN(C4CCC4)CC2)O3)cc1 [Example 305]
18 | < 200 | < 200 | 232 to 234 | COCCN(C)C(=O)c1ccc(-c2ccc3c(c2)COC2(CCN(C4CCC4)CC2)O3)cc1 [Example 306]
19 | < 200 | < 200 | 174 to 175 | Cc1nc(C)c(C(=O)Nc2ccc3c(c2)COC2(CCN(C4CCC4)CC2)O3)s1 [Example 308]
20 | < 200 | < 200 | 155.5 to 157.3 | CC(C)OCCNC(=O)c1ccc(-c2ccc3c(c2)COC2(CCN(C4CCC4)CC2)O3)cc1 [Example 311]
21 | < 200 | < 200 | 213 to 215 | CN(C)c1cc(C(=O)Nc2ccc3c(c2)COC2(CCN(C4CCC4)CC2)O3)ccn1 [Example 314]
22 | < 200 | < 200 | 184 to 185 | Cc1cc(C(=O)Nc2ccc3c(c2)COC2(CCN(C4CCC4)CC2)O3)ccn1 [Example 315]
23 | < 200 | < 200 | 232 to 234 | O=C(Nc1ccc2c(c1)COC1(CCN(C3CCC3)CC1)O2)c1ccc2ncsc2c1 [Example 316]
24 | < 200 | < 200 | 57 to 59 | CC(=O)N(Cc1cccnc1)c1ccc2c(c1)COC1(CCN(C3CCC3)CC1)O2 [Example 320]
25 | < 200 | < 200 | 117 to 118 | c1cncc(CNc2ccc3c(c2)COC2(CCN(C4CCC4)CC2)O3)c1 [Example 321]
26 | < 200 | < 200 | 166 to 168 | O=C(Cc1ccccn1)Nc1ccc2c(c1)COC1(CCN(C3CCC3)CC1)O2 [Example 322]
27 | < 200 | < 200 | 207 to 208 | CNc1cc(C(=O)Nc2ccc3c(c2)COC2(CCN(C4CCC4)CC2)O3)ccn1 [Example 323]

Second part, the compound before the results:

Row | SMILES | Ki (human H3 receptor) [nM] | Ki [1] [nM] | melting point [°C]
28 | c1cc(COc2ccc3c(c2)CCC2(CCN(C4CCC4)CC2)O3)ccn1 [Example 269] | < 200 | < 200 | 233 to 235
29 | O=C(Nc1ccc2c(c1)CCC1(CCN(C3CCC3)CC1)O2)c1ccns1 [Example 270] | < 200 | < 200 | 109 to 111
30 | CNC(=O)c1ccc(-c2cc3c(cc2Cl)OC2(CCN(C4CCC4)CC2)OC3)cc1F [Example 272] | < 200 | < 200 | 70 to 72
31 | c1cc(Oc2ccc3c(c2)CCC2(CCN(C4CCC4)CC2)O3)ccn1 [Example 273] | < 200 | < 200 | 266 to 268
32 | COCC(C)(C)NC(=O)c1ccc(-c2ccc3c(c2)CCC2(CCN(C4CCC4)CC2)O3)cc1 [Example 274] | < 200 | < 200 | 264 to 266
33 | COCCNC(=O)N1CCN(c2ccc3c(c2)COC2(CCN(C4CCC4)CC2)O3)CC1 [Example 275] | < 200 | < 200 | 66.8 to 68.4
34 | CC(C)NC(=O)N1CCN(c2ccc3c(c2)COC2(CCN(C4CCC4)CC2)O3)CC1 [Example 279] | < 200 | < 200 | 206.5 to 207.5
35 | CNC(=O)c1cc(Oc2ccc3c(c2)CCC2(CCN(C4CCC4)CC2)O3)ccn1 [Example 281] | < 200 | < 200 | 255 to 257
36 | CNC(=O)c1ccc(Oc2ccc3c(c2)CCC2(CCN(C4CCC4)CC2)O3)cc1 [Example 282] | < 200 | < 200 | 179 to 181
37 | Clc1ccc(COc2ccc3c(c2)CCC2(CCN(C4CCC4)CC2)O3)cc1 [Example 288] | < 200 | < 200 | 115 to 116
38 | O=C(Nc1ccc2c(c1)CCC1(CCN(C3CCC3)CC1)O2)c1ccnnc1 [Example 289] | < 200 | < 200 | 213 to 215
39 | CNC(=O)c1cc(COc2ccc3c(c2)CCC2(CCN(C4CCC4)CC2)O3)ccn1 [Example 292] | < 200 | < 200 | 141 to 143
40 | O=C(NCC(F)(F)F)N1CCN(c2ccc3c(c2)COC2(CCN(C4CCC4)CC2)O3)CC1 [Example 295] | < 200 | < 200 | 182.5 to 183.5
41 | c1cc2c(cc1N1CCC(N3CCOCC3)CC1)COC1(CCN(C3CCC3)CC1)O2 [Example 298] | < 200 | < 200 | 142.4 to 144.3
42 | O=S(=O)(N1CCN(c2ccc3c(c2)COC2(CCN(C4CCC4)CC2)O3)CC1)C(F)(F)F [Example 299] | < 200 | < 200 | 154.6 to 156.4
43 | CC(C)NC(=O)c1ccc(-c2ccc3c(c2)CCC2(CCN(C4CCC4)CC2)O3)cc1 [Example 302] | < 200 | < 200 | 191 to 192
44 | COCCN(C)C(=O)c1ccc(-c2ccc3c(c2)CCC2(CCN(C4CCC4)CC2)O3)cc1 [Example 303] | < 200 | < 200 | 225 to 227
45 | O=C(N1CCCC1)N1CCN(c2ccc3c(c2)COC2(CCN(C4CCC4)CC2)O3)CC1 [Example 307] | < 200 | < 200 | 132 to 135
46 | O=C(Nc1ccc2c(c1)COC1(CCN(C3CCC3)CC1)O2)c1ccnc(N2CCCC2)c1 [Example 309] | < 200 | < 200 | 234 to 236
47 | O=C(N1CCOCC1)N1CCN(c2ccc3c(c2)COC2(CCN(C4CCC4)CC2)O3)CC1 [Example 310] | < 200 | < 200 | 174 to 176
48 | CC(C)OCCNC(=O)c1ccc(-c2ccc3c(c2)CCC2(CCN(C4CCC4)CC2)O3)cc1 [Example 312] | < 200 | < 200 | 135 to 137
49 | O=C(Nc1ccc2c(c1)COC1(CCN(C3CCC3)CC1)O2)c1ccnc(N2CCOCC2)c1 [Example 313] | < 200 | < 200 | 205 to 207
50 | O=C(NC1CCN(c2ccc3c(c2)COC2(CCN(C4CCC4)CC2)O3)CC1)N1CCCC1 [Example 319] | < 200 | < 200 | 210.2 to 212.6
